Experimental data: ChEMBL document CHEMBL1201862, “PubChem BioAssay data set” (2004)
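Method: 48-hour compound exposure of cells in 96-well plates, five concentrations, linear interpolation of endpoints. At the GI50, growth is halved.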 The source made the active and inactive calls. No stated cut-off is given here; in the data, active = GI50 up to about 1.1 µM and inactive = higher.

Key:
Experiment in all cases: NCI-60 cell line screen, 48 h
LOX IMVI = system: LOX IMVI
SNB-19 = system: SNB-19
HL-60 = system: HL-60
SNB-75 = system: SNB-75
SF-295 = system: SF-295
HCC 2998 = system: HCC 2998
UACC-62 = system: UACC-62
UO-31 = system: UO-31
SW-620 = system: SW-620
OVCAR-3 = system: OVCAR-3
SF-539 = system: SF-539
SK-MEL-28 = system: SK-MEL-28
OVCAR-4 = system: OVCAR-4
U-251 = system: U-251
NCI-H460 = system: NCI-H460
KM12 = system: KM12
SK-OV-3 = system: SK-OV-3

SMILES | GI50 (LOX IMVI) | GI50 (SNB-19) | GI50 (HL-60) | GI50 (SNB-75) | GI50 (SF-295) | GI50 (HCC 2998) | GI50 (UACC-62) | GI50 (UO-31) | GI50 (SW-620) | GI50 (OVCAR-3) | GI50 (SF-539) | GI50 (SK-MEL-28) | GI50 (OVCAR-4) | GI50 (U-251) | GI50 (NCI-H460) | GI50 (KM12) | GI50 (SK-OV-3)
COC(=O)CC1NC(=O)[C@@H]1C(C)O (stereo not given in full) | > 100 µM (inactive) | > 100 µM (inactive) | > 100 µM (inactive) | > 100 µM (inactive) | > 100 µM (inactive) | > 100 µM (inactive) | > 100 µM (inactive) | > 100 µM (inactive) | > 100 µM (inactive) | > 100 µM (inactive) | > 100 µM (inactive) | > 100 µM (inactive) | > 100 µM (inactive) | > 100 µM (inactive) | > 100 µM (inactive) | – | –
Cc1ccc(N(C(=O)CC(=O)NN)C(=O)c2ccccc2Cl)cc1 | > 100 µM (inactive) | > 100 µM (inactive) | > 100 µM (inactive) | > 100 µM (inactive) | > 100 µM (inactive) | > 100 µM (inactive) | > 100 µM (inactive) | > 100 µM (inactive) | > 100 µM (inactive) | > 100 µM (inactive) | > 100 µM (inactive) | > 100 µM (inactive) | > 100 µM (inactive) | > 100 µM (inactive) | > 100 µM (inactive) | > 100 µM (inactive) | > 100 µM (inactive)
O=C1c2ccccc2C(=O)c2sc(Nc3ccc(Cl)cc3)nc21 | 1.59 µM (inactive) | 5.73 µM (inactive) | 0.1 µM (active) | 8.41 µM (inactive) | 5.53 µM (inactive) | 4.32 µM (inactive) | 1.85 µM (inactive) | 3.35 µM (inactive) | 1.09 µM (active) | 1.51 µM (inactive) | 4.55 µM (inactive) | 1.66 µM (inactive) | 1.65 µM (inactive) | 1.62 µM (inactive) | 2.82 µM (inactive) | 2.04 µM (inactive) | 18.9 µM (inactive)
Brc1c2nc3ccccc3nc2n2ccc3ccccc3c12 | > 100 µM (inactive) | > 100 µM (inactive) | > 100 µM (inactive) | > 100 µM (inactive) | – | > 100 µM (inactive) | > 100 µM (inactive) | > 100 µM (inactive) | > 100 µM (inactive) | > 100 µM (inactive) | > 100 µM (inactive) | > 100 µM (inactive) | > 100 µM (inactive) | > 100 µM (inactive) | > 100 µM (inactive) | > 100 µM (inactive) | 2.23 µM (inactive)
CC1=Nc2c(ccc3c2C(=O)c2ccccc2C3=O)NC(c2ccncc2)C1 (stereo not given) | 34.8 µM (inactive) | > 10 µM (inactive) | 0.798 µM (active) | 5.96 µM (inactive) | > 10 µM (inactive) | > 10 µM (inactive) | 62.4 µM (inactive) | 4.72 µM (inactive) | 52.5 µM (inactive) | > 10 µM (inactive) | > 10 µM (inactive) | > 10 µM (inactive) | > 10 µM (inactive) | > 10 µM (inactive) | > 10 µM (inactive) | 5.07 µM (inactive) | 6.49 µM (inactive)
COC(=O)CC(NC(=O)OCc1ccccc1)C(C(C)=O)C(=O)OCc1ccccc1 (stereo not given) | > 100 µM (inactive) | > 10 µM (inactive) | > 31.6 µM (inactive) | 20.2 µM (inactive) | > 100 µM (inactive) | > 10 µM (inactive) | > 31.6 µM (inactive) | > 31.6 µM (inactive) | > 31.6 µM (inactive) | > 31.6 µM (inactive) | > 31.6 µM (inactive) | > 31.6 µM (inactive) | > 10 µM (inactive) | > 31.6 µM (inactive) | > 31.6 µM (inactive) | > 31.6 µM (inactive) | > 31.6 µM (inactive)
Cc1ccccc1NC(=O)C(=O)CC(=O)c1sc(-n2nc(-c3ccccc3)cc2-c2ccccc2)nc1C | > 100 µM (inactive) | > 100 µM (inactive) | > 100 µM (inactive) | > 100 µM (inactive) | > 100 µM (inactive) | > 100 µM (inactive) | > 100 µM (inactive) | > 100 µM (inactive) | > 100 µM (inactive) | > 100 µM (inactive) | > 100 µM (inactive) | – | > 100 µM (inactive) | > 100 µM (inactive) | > 100 µM (inactive) | > 100 µM (inactive) | > 100 µM (inactive)
C=CCC1(CN(C)C)CC/C(=C\c2ccc3c(c2)OCO3)C1=O (stereo not given) | 97.1 µM (inactive) | > 100 µM (inactive) | 4.32 µM (inactive) | > 100 µM (inactive) | > 100 µM (inactive) | 37.3 µM (inactive) | 68.4 µM (inactive) | 45 µM (inactive) | 35.1 µM (inactive) | 65.3 µM (inactive) | 88.9 µM (inactive) | > 100 µM (inactive) | 67.5 µM (inactive) | 52.1 µM (inactive) | 50.4 µM (inactive) | 42.3 µM (inactive) | –
COC1C=COC2(C)Oc3c(C)c(O)c4c(O)c(c(/C=N/N5CCN(N)CC5)c(O)c4c3C2=O)NC(=O)C(C)=CC=CC(C)C(O)C(C)C(O)C(C)C(OC(C)=O)C1C (stereo not given) | 69 µM (inactive) | > 100 µM (inactive) | 35.2 µM (inactive) | 34.7 µM (inactive) | 84.3 µM (inactive) | > 100 µM (inactive) | > 100 µM (inactive) | 41.7 µM (inactive) | 48 µM (inactive) | – | > 100 µM (inactive) | 34.4 µM (inactive) | 70.5 µM (inactive) | > 100 µM (inactive) | – | 68.4 µM (inactive) | > 100 µM (inactive)
O=C1C(=O)N(c2cc(Cl)ccc2Cl)C(=O)C(=O)C1c1nc2ccccc2s1 | > 100 µM (inactive) | > 100 µM (inactive) | > 100 µM (inactive) | 49.4 µM (inactive) | > 100 µM (inactive) | – | > 100 µM (inactive) | 16.2 µM (inactive) | > 100 µM (inactive) | > 100 µM (inactive) | > 100 µM (inactive) | > 100 µM (inactive) | > 100 µM (inactive) | > 100 µM (inactive) | > 100 µM (inactive) | > 100 µM (inactive) | > 100 µM (inactive)
OCC(O)COc1c(Cl)cc(Cl)cc1Cl (stereo not given) | > 41.3 µM (inactive) | > 100 µM (inactive) | > 100 µM (inactive) | > 100 µM (inactive) | > 100 µM (inactive) | > 100 µM (inactive) | > 100 µM (inactive) | > 100 µM (inactive) | > 34 µM (inactive) | > 100 µM (inactive) | > 100 µM (inactive) | > 100 µM (inactive) | > 100 µM (inactive) | > 100 µM (inactive) | > 100 µM (inactive) | > 100 µM (inactive) | > 100 µM (inactive)
CCCCN/C(=N\C#N)N(Cc1ccccc1)Cc1ccccc1 | 15.5 µM (inactive) | 35.7 µM (inactive) | 18.9 µM (inactive) | 31.5 µM (inactive) | 23.4 µM (inactive) | 11.9 µM (inactive) | 15.4 µM (inactive) | 20.7 µM (inactive) | 16 µM (inactive) | 23.8 µM (inactive) | 22.2 µM (inactive) | 34.2 µM (inactive) | 27.3 µM (inactive) | 28.5 µM (inactive) | 58.5 µM (inactive) | 28.2 µM (inactive) | 29.7 µM (inactive)
CN(C)C(=S)/N=c1\ss/c(=N\C(=S)N(C)C)n1-c1ccc2c(c1)OCO2 | > 100 µM (inactive) | > 100 µM (inactive) | 3.27 µM (inactive) | > 100 µM (inactive) | > 100 µM (inactive) | > 100 µM (inactive) | 5.56 µM (inactive) | > 100 µM (inactive) | > 100 µM (inactive) | > 100 µM (inactive) | > 100 µM (inactive) | > 100 µM (inactive) | 4.19 µM (inactive) | > 100 µM (inactive) | – | > 100 µM (inactive) | > 100 µM (inactive)
COc1cc2c[n+](C)c3c4cc(OC)c(OC(C)C)cc4ccc3c2cc1OC | 46.5 µM (inactive) | 51.8 µM (inactive) | 35.2 µM (inactive) | 44.9 µM (inactive) | > 100 µM (inactive) | 44.2 µM (inactive) | 37.3 µM (inactive) | > 100 µM (inactive) | 36.3 µM (inactive) | 10.5 µM (inactive) | > 100 µM (inactive) | 57.7 µM (inactive) | 62.7 µM (inactive) | 29.6 µM (inactive) | 75.3 µM (inactive) | 29.8 µM (inactive) | > 100 µM (inactive)
CC1(C)COC(c2ccc(C(F)(F)F)cc2C(O)c2ccc3ccccc3c2)=N1 (stereo not given) | > 10 µM (inactive) | 57.8 µM (inactive) | 78.3 µM (inactive) | 15.8 µM (inactive) | 20.7 µM (inactive) | > 10 µM (inactive) | > 10 µM (inactive) | > 10 µM (inactive) | > 10 µM (inactive) | > 10 µM (inactive) | 64.4 µM (inactive) | > 10 µM (inactive) | > 10 µM (inactive) | > 10 µM (inactive) | > 10 µM (inactive) | > 10 µM (inactive) | > 10 µM (inactive)
COC1[C@@H](OC(C)=O)[C@@H](NC(=O)C(Cl)(Cl)Cl)C(I)[C@@H](N2C(=O)c3ccccc3C2=O)[C@H]1OC (stereo not given in full) | > 100 µM (inactive) | > 100 µM (inactive) | > 100 µM (inactive) | > 100 µM (inactive) | 36.6 µM (inactive) | – | > 100 µM (inactive) | – | > 100 µM (inactive) | – | 50.2 µM (inactive) | > 100 µM (inactive) | 72.3 µM (inactive) | > 100 µM (inactive) | > 100 µM (inactive) | 6.59 µM (inactive) | –
COc1ccc(/C=C2\CCC(CCN(C)C)(C3=CCCC3)C2=O)cc1 (stereo not given) | 16.6 µM (inactive) | 16.6 µM (inactive) | 15.9 µM (inactive) | 19 µM (inactive) | 18.7 µM (inactive) | 18.6 µM (inactive) | 16.4 µM (inactive) | 14.8 µM (inactive) | 16.8 µM (inactive) | 19.1 µM (inactive) | 16.1 µM (inactive) | 19 µM (inactive) | 19.7 µM (inactive) | 16.5 µM (inactive) | 20.1 µM (inactive) | 18 µM (inactive) | –
